For 4 compounds, EC50, IC50 and MIC results are on record in US20240270762A1, “PENICILLIN-BINDING PROTEIN INHIBITORS” (priority 2021, published 2024).

Assay [1] concerns the target T1, PBP3 from Escherichia coli (K-12) (Escherichia coli, UniProt P0AD68).
T1 construct: made in house
The experiment in a line: Bocillin-FL fluorescence polarization competition binding, E. coli PBP3. The source says:
(§1) To determine the ability of boronic acid-based test PBP inhibitors to bind Penicillin Binding Proteins (PBPs), Bocillin-FL (fluorescently-labeled penicillin V; ThermoFisher Scientific) was used in a fluorescence polarization (FP) competition binding assay to assess inhibitor binding to PBP3 from Escherichia coli (K-12), PBP3 from Pseudomonas aeruginosa (PAO1), PBP1a and PBP3 from Acinetobacter baumannii (ATCC 19606), and PBP2 from Neisseria gonorrhoeae (FA19). PBPs were cloned and purified as described previously (E. coli PBP3, King, D. T, et al., ACS Infectious Diseases 2015, 1, 175-184; P. aeruginosa PBP3, Han et. al., PNAS 2010, 107 (51), 22002-22007; A. baumannii PBPs, Penwell et. al., Antimicrob. Agents Chemother. 2015, 59 (3), 1680-1689; N. gonorrhoeae PBP2, Singh et. al., J. Biol. Chem. 2019, 294 (38), 14020-14032). To establish assay conditions for competition binding, enzyme titration/saturation binding experiments were initially performed. Bocillin-FL was prepared at 0.2 μM in a buffer comprised of 50 mM Hepes (pH 8.0), 300 mM NaCl and 10% (v/v) glycerol for reactions with E. coli, P. aeruginosa and N. gonorrhoeae PBPs, and 25 mM Tris (pH 8.0), 200 mM NaCl, 10% (v/v) glycerol and 0.005% (v/v) Tween 20 for reactions with A. baumannii PBPs. Saturation binding was performed by mixing 40 μl of PBP solutions ranging in concentrations from 0-24 μM with 40 μl of the 0.2 μM Bocillin-FL solution, in individual wells of a black 384-well microplate. FP was measured immediately upon mixing (Excitation, 490 nm; Emission, 520 nm; g-factor, 0.96), using a Cytation3 (BioTek) microplate reader and measured continuously for up to 120 minutes. The FP response stabilized after 15 minutes for P. aeruginosa and A. baumannii PBP3, 30 minutes for E. coli PBP3 and A. baumannii PBP1a, and less than 1 minute for N. gonorrhoeae PBP2. […] The competition binding assay (80 μl final volume) was validated using beta-lactams and PBPs at final concentrations of: 1.5 μM for E. coli PBP3; 0.75 μM for P. aeruginosa PBP3; 1 μM for A. baumannii PBP1a; 0.2 μM for A. baumannii PBP3; and 0.25 μM for N. gonorrhoeae PBP2. Bocillin-FL was at 0.1 μM (0.05 μM with A. baumannii PBP1a) and beta-lactam concentrations ranged from 0-1,000 μM. E. coli PBP3 was incubated with increasing concentrations of ampicillin in a black 384-well microplate (Corning) for 30 minutes. P. aeruginosa PBP3 was incubated for 15 minutes with aztreonam, whereas A. baumannii PBP1a and PBP3 were incubated for 15 minutes with meropenem, and then Bocillin-FL was added followed immediately by the FP measurement for up to 60 minutes. […] The beta-lactam potency was reported as the concentration of beta-lactam required to reduce the amount of PBP bound-Bocillin-FL by 50% (EC50). […] The EC50 of aztreonam was determined to be <0.5 μM for P. aeruginosa PBP3. […] Binding assays for boronic acid PBP inhibitors were performed in an identical fashion for the respective PBPs.
On the technique in general: Polarisation of emitted light reports the rotation of a fluorescent probe.

Assay [2] deals with T2, PBP3 from Pseudomonas aeruginosa (PAO1) (Pseudomonas aeruginosa, UniProt G3XD46).
T2 construct: made in house
The experiment in a line: Bocillin-FL fluorescence polarization competition binding, P. aeruginosa PBP3. Particulars: Binding affinity to P. aeruginosa PBP3; fluorescence polarization competition binding assay using Bocillin-FL; read-out: P. aeruginosa PBP3 Potency.
From the text: as §1

In the next assay the test system is E. coli ATCC 25922. The experiment in a line: microbe, parasite or virus in culture. The class given is cell-based. As to conditions: Escherichia coli, ATCC25922, read-out: MIC E. coli 25922.
A further assay concerns E. coli AG100. Kind of assay: microbe, parasite or virus in culture. The class given is cell-based. As to conditions: Escherichia coli, AG100, read-out: MIC E. coli AG100.
The next assay concerns E. coli 901C. The experiment in a line: microbe, parasite or virus in culture. As to conditions: Escherichia coli, read-out: MIC E. coli 901C. The class given is cell-based.
A further assay deals with E. coli D22. The experiment in a line: microbe, parasite or virus in culture. Particulars: Escherichia coli, D22, read-out: MIC E. coli D22. The class given is cell-based.
The test system of the next assay is E. coli AG100A. The experiment in a line: Broth microdilution MIC in CAMHB. The class given is cell-based. As to conditions: Escherichia coli, read-out: MIC E. coli AG100A. (Broth dilution looks for growth in wells or tubes with falling amounts of substance.)
A further assay relates to K. pneumoniae 848844. The experiment in a line: microbe, parasite or virus in culture. As to conditions: Klebsiella pneumoniae, 848844, read-out: MIC K. pneumoniae 848844. The class given is cell-based.
Another assay relates to K. pneumoniae UMM. Kind of assay: microbe, parasite or virus in culture. The class given is cell-based. Particulars: Klebsiella pneumoniae, read-out: MIC K. pneumoniae UMM.
For another assay, the system named is K. pneumoniae SI-117. The experiment in a line: microbe, parasite or virus in culture. The class given is cell-based. Particulars: Klebsiella pneumoniae, SI117, read-out: MIC K. pneumoniae SI-117.
In another assay the test system is P. aeruginosa ATCC 27853. The experiment in a line: microbe, parasite or virus in culture. The class given is cell-based. As to conditions: Pseudomonas aeruginosa, ATCC27853, read-out: MIC P. aeruginosa ATCC 27853.
For another assay, the system named is A. baumannii ATCC 19606. The experiment in a line: microbe, parasite or virus in culture. The class given is cell-based. As to conditions: Acinetobacter baumannii, ATCC19606, read-out: MIC, A. baumannii ATCC 19606.
The subject of another assay is P. aeruginosa ATCC 35151. The experiment in a line: microbe, parasite or virus in culture. The class given is cell-based. As to conditions: Pseudomonas aeruginosa, ATCC35151, read-out: MIC P. aeruginosa ATCC 35151.
For assay [3], the system named is P. aeruginosa (ΔmexAB-oprM). Kind of assay: Broth microdilution MIC in CAMHB. The class given is cell-based. Particulars: Pseudomonas aeruginosa; read-out: MIC P. aeruginosa ΔmexAB-oprM.
Assay [4] relates to N. gonorrhoeae ATCC 49226. Kind of assay: Liquid broth MIC in Fastidious broth. As to conditions: Neisseria gonorrhoeae, ATCC49226, read-out: Minimum Inhibitory Concentration, ATCC 49226.
The test system of another assay is N. gonorrhoeae FA1090. Kind of assay: Liquid broth MIC in Fastidious broth. As to conditions: Neisseria gonorrhoeae, FA1090, read-out: Minimum Inhibitory Concentration, FA 1090.
The next assay deals with N. gonorrhoeae WHO Z. Kind of assay: Liquid broth MIC in Fastidious broth. Particulars: Neisseria gonorrhoeae, read-out: Minimum Inhibitory Concentration, WHO Z.

Values after ≈ are worked out from the molar mass of the structure shown.

T1 sequence (P0AD68 1-577): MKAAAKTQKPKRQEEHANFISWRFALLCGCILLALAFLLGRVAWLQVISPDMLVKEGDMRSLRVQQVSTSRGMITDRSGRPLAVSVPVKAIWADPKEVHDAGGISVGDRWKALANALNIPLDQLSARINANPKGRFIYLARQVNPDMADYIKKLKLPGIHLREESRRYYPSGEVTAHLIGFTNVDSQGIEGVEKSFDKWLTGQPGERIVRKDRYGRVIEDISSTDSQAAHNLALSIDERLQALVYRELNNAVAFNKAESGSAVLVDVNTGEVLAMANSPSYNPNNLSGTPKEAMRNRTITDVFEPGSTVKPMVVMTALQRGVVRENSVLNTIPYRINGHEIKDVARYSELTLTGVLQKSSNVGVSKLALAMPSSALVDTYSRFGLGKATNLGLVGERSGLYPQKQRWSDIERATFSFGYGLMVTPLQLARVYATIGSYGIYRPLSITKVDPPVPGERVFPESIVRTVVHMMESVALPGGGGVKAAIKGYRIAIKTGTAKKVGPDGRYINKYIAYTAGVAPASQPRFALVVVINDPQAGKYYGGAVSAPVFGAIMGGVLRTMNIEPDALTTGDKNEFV
T2 sequence (G3XD46 whole entry): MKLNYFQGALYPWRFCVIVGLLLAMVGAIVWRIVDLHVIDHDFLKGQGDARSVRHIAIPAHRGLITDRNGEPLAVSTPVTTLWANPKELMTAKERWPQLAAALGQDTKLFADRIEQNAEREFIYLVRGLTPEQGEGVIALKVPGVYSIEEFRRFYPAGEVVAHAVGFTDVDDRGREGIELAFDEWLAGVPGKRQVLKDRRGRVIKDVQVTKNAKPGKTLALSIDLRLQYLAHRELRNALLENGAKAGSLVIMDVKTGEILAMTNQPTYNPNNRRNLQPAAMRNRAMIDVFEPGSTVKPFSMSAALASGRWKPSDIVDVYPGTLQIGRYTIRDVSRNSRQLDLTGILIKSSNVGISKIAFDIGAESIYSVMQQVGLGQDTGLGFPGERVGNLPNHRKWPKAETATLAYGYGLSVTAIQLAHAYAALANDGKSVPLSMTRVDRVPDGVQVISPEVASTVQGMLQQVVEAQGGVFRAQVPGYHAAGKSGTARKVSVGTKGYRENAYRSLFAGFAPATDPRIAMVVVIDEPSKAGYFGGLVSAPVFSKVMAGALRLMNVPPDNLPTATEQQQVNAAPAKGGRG

In assay [1], `O=C(N[C@@H](C(=O)N[C@H]1Cc2cccc(C(=O)O)c2OB1O)c1ccc(P(=O)(O)O)cc1)c1cnc2cccn2c1` (single isomer, unassigned) [Example 499] gave an EC50 of 10 to 50 µM. Further, in assay [2], the IC50 was less than 10 µM. Also, the MIC in the assay with E. coli ATCC 25922 is greater than 128 µg/mL; in the assay on E. coli AG100, greater than 128 µg/mL; in the assay on E. coli 901C it was 2 to 4 µg/mL (≈ 3.54 to 7.09 µM); in the assay with E. coli D22, 32 to 64 µg/mL (≈ 56.7 to 113 µM); in the assay with E. coli AG100A it was 32 to 64 µg/mL (≈ 56.7 to 113 µM); in the assay with K. pneumoniae 848844, greater than 128 µg/mL. Besides, the MIC with K. pneumoniae UMM is greater than 128 µg/mL; in the assay with K. pneumoniae SI-117 it was greater than 128 µg/mL; in the assay with P. aeruginosa ATCC 27853 it was greater than 128 µg/mL; in the assay with A. baumannii ATCC 19606, greater than 128 µg/mL; in the assay with P. aeruginosa ATCC 35151 it was 2 to 4 µg/mL (≈ 3.54 to 7.09 µM); in [3] it was 32 to 64 µg/mL (≈ 56.7 to 113 µM).

Regarding `O=C(N[C@H](C(=O)N[C@H]1Cc2cccc(C(=O)O)c2OB1O)c1ccc(P(=O)(O)O)cc1)c1cnc2ccnn2c1` (single isomer, unassigned) [Example 186], in [1], the EC50 was greater than 250 µM. In assay [2], the IC50 lay in the range of 10 to 50 µM. Besides, the MIC was greater than 128 µg/mL in the assay on E. coli ATCC 25922; greater than 128 µg/mL with E. coli AG100; 8 to 16 µg/mL (≈ 14.2 to 28.3 µM) in the assay on E. coli 901C; greater than 128 µg/mL with E. coli D22; greater than 128 µg/mL with E. coli AG100A; greater than 128 µg/mL in the assay with K. pneumoniae 848844. The MIC in the assay on K. pneumoniae UMM is greater than 128 µg/mL; in the assay on K. pneumoniae SI-117 it was greater than 128 µg/mL; with P. aeruginosa ATCC 27853, greater than 128 µg/mL; in the assay on A. baumannii ATCC 19606, greater than 128 µg/mL; in the assay on P. aeruginosa ATCC 35151, 2 to 4 µg/mL (≈ 3.54 to 7.08 µM); in [3], greater than 128 µg/mL.

The compound `O=C(NC(C(=O)N[C@H]1Cc2cccc(C(=O)O)c2OB1O)c1ccc(P(=O)(O)O)cc1)c1ccc2ccnn2c1` (stereo partly drawn) [Example 498, (3R)-2-hydroxy-3-(2-(4-phosphonophenyl)-2-(pyrazolo[1,5-a]pyridine-6-carboxamido)acetamido)-3,4-dihydro-2H-benzo[e][1,2]oxaborinine-8-carboxylic acid] displayed an EC50 in assay [1] of 50 to 250 µM. The IC50 in assay [2] lay in the range of 10 to 50 µM. Besides, the MIC was greater than 128 µg/mL in the assay on E. coli ATCC 25922; greater than 128 µg/mL in the assay on E. coli AG100; 32 to 64 µg/mL (≈ 56.7 to 113 µM) in the assay on E. coli 901C; greater than 128 µg/mL in the assay on E. coli D22; greater than 128 µg/mL in the assay on E. coli AG100A; greater than 128 µg/mL in the assay with K. pneumoniae 848844. The MIC was greater than 128 µg/mL with K. pneumoniae UMM; greater than 128 µg/mL in the assay on K. pneumoniae SI-117; greater than 128 µg/mL with P. aeruginosa ATCC 27853; greater than 128 µg/mL with A. baumannii ATCC 19606; 8 to 16 µg/mL (≈ 14.2 to 28.4 µM) with P. aeruginosa ATCC 35151; greater than 128 µg/mL in assay [3]. The MIC is greater than 64 µg/mL in assay [4], 4 to 8 µg/mL (≈ 7.09 to 14.2 µM) in the assay on N. gonorrhoeae FA1090 and greater than 64 µg/mL in the assay with N. gonorrhoeae WHO Z.

Consider `O=C(N[C@@H](C(=O)N[C@H]1Cc2cccc(C(=O)O)c2OB1O)c1ccc(P(=O)(O)O)cc1)c1cnc2ccnn2c1` (single isomer, unassigned) [Example 187], for which the EC50 in [1] was in the range of 10 to 50 µM. The IC50 in assay [2] is less than 10 µM. Moreover, the MIC in the assay with E. coli ATCC 25922 is greater than 128 µg/mL; in the assay with E. coli AG100, greater than 128 µg/mL; with E. coli 901C, 8 to 16 µg/mL (≈ 14.2 to 28.3 µM); in the assay on E. coli D22, 32 to 64 µg/mL (≈ 56.6 to 113 µM); with E. coli AG100A, greater than 128 µg/mL; with K. pneumoniae 848844, greater than 128 µg/mL. Further, the MIC was greater than 128 µg/mL in the assay with K. pneumoniae UMM; greater than 128 µg/mL in the assay on K. pneumoniae SI-117; greater than 128 µg/mL with P. aeruginosa ATCC 27853; greater than 128 µg/mL in the assay on A. baumannii ATCC 19606; 2 to 4 µg/mL (≈ 3.54 to 7.08 µM) in the assay with P. aeruginosa ATCC 35151; 32 to 64 µg/mL (≈ 56.6 to 113 µM) in [3].

As a reminder, the EC50 is the concentration giving half of the maximal effect. The low end stands for a more potent agent, the high end for a less potent agent.
